This is an account of results in PMC3674995, “Safety, Pharmacokinetic, and Efficacy Studies of Oral DB868 in a First Stage Vervet Monkey Model of Human African Trypanosomiasis” (PLoS Neglected Tropical Diseases, 2013).

SMILES strings stand for the structures. Where “and” joins values, the source holds several entries; their conditions need not be identical. Identical values can stand only once. Entries after “also recorded” stand apart in the source; their conditions may differ.

For series [1], the system named is T. b. rhodesiense KETRI 2537. The series is described as follows: Efficacy in first stage HAT vervet monkey model. The class given is in vivo. As to conditions: for time to clear parasites from the blood: after the 1st drug dose. How it is done:
Monkeys that were deemed as treatment failures/relapses or developed severe adverse clinical signs as defined in the protocol (e.g., inability or reluctance to perch, less than ¼ of normal daily feed intake for 2–3 consecutive days) were immediately withdrawn from the study and humanely euthanized for post-mortem examination. These monkeys were euthanized by intravenous administration of 20% (w/v) pentobarbitone sodium solution (150 mg/kg body weight; Euthatal; Rhône-Mérieux, United Kingdom).

The nature of series [2]: Metabolism of DB868 in vervet monkey liver microsomes. The class given is in vitro ADME. As to conditions: 10 µM, 0.5 mg/mL microsomes, 1 mM NADPH, pH 7.4, up to 120 min. How it is done:
DB868 metabolism was studied in male vervet monkey liver microsomes (custom-prepared by XenoTech, LLC, Lenexa, KS, USA) by adapting a previously published method. Briefly, incubation mixtures contained 10 µM DB868, 0.5 mg/mL monkey liver microsomes, and 3.3 mM MgCl2 in 100 mM phosphate buffer (pH 7.4). Reactions were initiated by the addition of NADPH (1 mM final concentration). Control incubations were carried out without NADPH, DB868, or liver microsomes. Aliquots (100 µL) of the reaction mixtures were removed at 0, 5, 10, 15, 30, 60 and 120 min and mixed with 100 µL of ice-cold acetonitrile. After centrifugation to pellet precipitated proteins, the supernatants were analyzed by HPLC/UV and fluorescence using the method previously described for pafuramidine (DB289) and furamidine (DB75). Metabolite identification was performed by comparing retention times to those of synthetic standards for M1 (DB1679), M2 (DB840), M3 (DB1712), and DB829. DB868 and its metabolites were quantified using a calibration curve (0.1–10 µM) generated using synthetic standards.
(Liver microsomes are a subcellular fraction often used to study metabolism.)

Series [3] is described as follows: Pharmacokinetics in infected vervet monkeys (first stage HAT). The class given is in vivo, vervet monkey. As to conditions: monkey, plasma, po, prodrug in plasma post-LDD, all oral DB868 regimens; infected; 0.04 days = 1 h; read-out: Tmax (majority, 4/6 monkeys) (converted).
Series [4] has as its system T. b. rhodesiense STIB900. Details: method as in PMID 19620327. As to conditions: oral administration; cited from earlier work.
A further series concerns T. b. brucei GVR35. Details: method as in PMID 19620327. As to conditions: oral administration; cited from earlier work.
On the set-up of series [5]: method as in earlier work. As to conditions: cited from earlier work.
Series [6] can be described thus: Pharmacokinetics in uninfected vervet monkeys. As to conditions: uninfected; for concentration at 24 h / concentration at 4 h: both, monkey, po; for concentration at 24 h / concentration at 4 h / C24 h: plasma; for concentration at 24 h: C24 h; for concentration at 4 h: geometric mean C4 h, n = 4.
The nature of series [7]: Safety (overt toxicity, haematology, clinical chemistry) in uninfected vervet monkeys. As to conditions: for peak plasma urea relative to baseline: p<0.05; for highest post-treatment mean ALT: plasma.
For series [8], the system named is T. b. brucei s427 trypanosomes. Set-up: method as in PMID 21402852. As to conditions: 3.2 µM; cited from earlier work.
Where [9] appears, read: oral 3 mg/kg×7 days, monkeys 638, 643.
[10] abbreviates: after final oral dose of DB868 30 mg/kg×10 days, individual monkeys, 30 mg/kg.
The mark [11] stands for this setting: oral 10 mg/kg/day×10 days, 1–2 days post-LDD.

Turning to `N=C(N)c1ccc(OCCCCCOc2ccc(C(=N)N)cc2)cc1` [Pentamidine, reference compound], the “Trypanosomes blood/CSF at EoT” value in [1] (intramuscular 4 mg/kg×7 days from 7 DPI, monkeys 651, 541, 672) was “Pos and Neg”. Further, the Final efficacy assesment entry in series [1] (intramuscular 4 mg/kg×7 days, monkeys 651, 541, 672) is on record as “Not cured; also recorded: Cured”. In addition, the “time to clearance of trypanosomes from peripheral blood” value in series [1] (monkey, in vivo, im, 4 mg/kg) is 2 days.
With `CONC(=N)c1ccc(-c2ccc(-c3ccc(C(=N)NOC)cn3)o2)nc1` [DB868, 2,5-bis[5-(N-methoxyamidino)-2-pyridyl]furan], the metabolites formed entry in [2] was “metabolized in male vervet monkey liver microsomes to M1 (DB1679), M2 (DB840), M3 (DB1712), M4, and the active compound DB829”. In addition, in series [1] (oral 3 mg/kg/day for 7 days, monkey 638), the “day of dosing on which parasitologically negative” value came out at 6 day. In addition, in [1] (oral 3 mg/kg/day for 7 days, monkey 643), the “time at which parasitologically negative” value is on record as 3 days post-LDD. The “Trypanosomes blood/CSF at EoT” value in series [1] (oral 3 mg/kg×7 days from 7 DPI, monkeys 638, 643) is recorded as “Neg”; in [1] (oral 10 mg/kg×7 days from 7 DPI, monkeys 675, 691), “Neg”; in series [1] (oral 20 mg/kg×5 days from 7 DPI, monkeys 585, 658, 686, Neg = negative, Pos = positive), “Neg”. Besides, the Final efficacy assesment entry in series [1] (setting [9]) is recorded as “Cured”. In addition, the “Provisional efficacy at 100 days post-treatment” value in [1] (setting [9]) was “Cured”; in [1] (oral 10 mg/kg×7 days, monkeys 675, 691) it was “Cured”. For the same molecule, the “time at which consistently parasitologically negative” value in series [1] (oral 10 mg/kg/day for 7 days, monkey 675) is on record as 7 days post-LDD. For the same molecule, the “day of treatment on which parasitologically negative” value in [1] (oral 10 mg/kg/day for 7 days, monkey 691) was determined as 6 day. For the same molecule, in [1] (oral 20 mg/kg/day for 5 days, all three monkeys), the “day of drug administration by which trypanosomes were undetectable in blood” value is at most 4 days. Moreover, the “time to clear parasites from the blood” value was in the range of 2 to 5 days in series [1] (oral, '30 mg/kg group'); 6 to 14 days in series [1] (oral, lower dose regimen groups (3 and 10 mg/kg)). Also, in series [1] (oral, after the 1st dose, depending on the dose), the “time to clearance of trypanosomes from peripheral blood” value is 2 to 14 days. For the same molecule, the “cure of infected monkeys” value in series [1] (oral, all three regimens (3 mg/kg/day×7, 10 mg/kg/day×7, 20 mg/kg/day×5 days), treatment from 7 DPI) was “All infected monkeys were cured”. In addition, in series [1] (oral, for 7 days, first stage HAT monkey model), the “dose required to achieve complete cure” value came to 3 mg/kg. In addition, in series [1] (oral, 21 mg/kg vs 300 mg/kg cumulative), the “curative cumulative dose, fold lower than the maximum tolerated dose” value came out at 14 fold. Besides, the Tmax in series [3] was 57.6 min. For the same molecule, the curative (in series [4]; with T. b. brucei GVR35) was 100% throughout. Moreover, in series [5] (female Sprague-Dawley rats, oral 25 mg/kg/day for 3 weeks), the “increase in ALT compared to untreated rats” value is recorded as “less than 2 fold”. Also, in series [5] (oral 12 mg/kg/day×28 days, entire 4-month observation period), the “effect on KIM-1” value was “no effect”. In addition, in series [6] (setting [10]), the “AUC0-∞” value is 200 nmol·days/L and 540 nmol·days/L and 260 nmol·days/L and 180 nmol·days/L. Also, in [6] (setting [10]), the AUClast was 190 nmol·days/L and 530 nmol·days/L and 210 nmol·days/L and 170 nmol·days/L. The “t1/2 (terminal elimination half-life)” value in series [6] (setting [10]) is 0.4 day and 1 day (2×) and 1.3 day. Also, the concentration at 24 h was 6 nM in series [6] (10 mg/kg, 24 h after final oral dose of DB868 10 mg/kg×10 days, individual monkeys, BLQ = below limit of quantitation) and 66 nM in [6] (30 mg/kg, 24 h after final oral dose of DB868 30 mg/kg×10 days, individual monkeys). The concentration at 4 h was found to be 89 nM in [6] (10 mg/kg/day, oral DB868 10 mg/kg/day×10 days) and 466 nM in series [6] (30 mg/kg/day, oral DB868 30 mg/kg/day×10 days). The “time for plasma concentration to decline below the limit of detection” value is on record as “less than 1 day post-LDD” in [6] (oral DB868 10 mg/kg/day×10 days) and 1–2 days post-LDD in series [6] (oral DB868 30 mg/kg/day×10 days). For the same molecule, the “geometric mean C4 h, 30 mg/kg group relative to 10 mg/kg group” value in series [6] (oral DB868×10 days) stood at 5.2 fold. For the same molecule, the C4 h in series [6] (plasma concentration at 4 h after final (10th) oral dose of DB868 10 mg/kg×10 days, individual monkeys 643, 659, 675, 677, 10 mg/kg) was 50 nM and 130 nM and 39 nM and 250 nM; in series [6] (plasma concentration at 4 h after final (10th) oral dose of DB868 30 mg/kg×10 days, individual monkeys 546, 567, 668, 679, 30 mg/kg), 330 nM and 1600 nM and 280 nM and 320 nM. Moreover, the C24 h result in series [6] (24 h after final oral dose of DB868 10 mg/kg×10 days, individual monkeys, BLQ = below limit of quantitation, 10 mg/kg) is “BLQ”; in series [6] (24 h after final oral dose of DB868 30 mg/kg×10 days, individual monkeys, 30 mg/kg) it was 38 nM and 47 nM and 35 nM. Besides, in series [7] (both dose groups, 1–2 days after the last drug dose), the “transient increase of plasma urea concentrations” value is 2–3 fold. For the same molecule, in series [7] (oral 10 mg/kg/day for 10 days, uninfected, n = 4), the adverse clinical signs entry was “did not exhibit any adverse clinical signs”. In addition, the “BUN equivalent of peak mean urea” value in series [7] (setting [11]) is on record as 35.9 mg/dL. Moreover, in series [7] (setting [11]), the mean creatinine concentration amounted to 72.3 µmol/L. In [7] (setting [11]), the “mean creatinine concentration (equivalent)” value is reported as 0.8 mg/dL. The “peak mean urea concentration” value in series [7] (setting [11]) was 12.8 mmol/L. Besides, the “peak plasma urea relative to baseline” value is recorded as 2.1 fold in series [7] (setting [11]) and 2.7 fold in [7] (oral 30 mg/kg/day×10 days, 1–2 days post-LDD). For the same molecule, the “maximum decline of mean body weight from baseline” value in [7] (oral 10 mg/kg/day×10 days, baseline 3.2 kg±0.5) came to 6.2%; in series [7] (oral 30 mg/kg/day×10 days, baseline 3.1 kg±0.3), 6.5%. Moreover, the “highest post-treatment mean ALT relative to second baseline sample” value is listed as 2.8 fold in [7] (oral 10 mg/kg/day×10 days, p = 0.71) and 1.3 fold in series [7] (oral 30 mg/kg/day×10 days, p = 0.37). Moreover, the “highest post-treatment mean ALT” value in series [7] (oral 10 mg/kg/day×10 days) was found to be 31.3 IU/L; in series [7] (oral 30 mg/kg/day×10 days), 20.5 IU/L. Also, in [7] (oral 30 mg/kg/day for 10 days (cumulative 300 mg/kg), uninfected, two of four monkeys: excess mucous in stool, transient inappetance), the overt toxicity entry is on record as “mild signs of toxicity; also recorded: No significant overt toxicity”. For the same molecule, in series [7] (oral 30 mg/kg/day×10 days, p = 0.05, returned to baseline after 24 h, judged not drug-related), the “mean white blood cell count, transient increase over baseline post-LDD” value is 1.5 fold. Moreover, the “post-dosing variations of mean plasma creatinine” value in [7] (oral 10 or 30 mg/kg/day×10 days, not statistically significant (p>0.05)) is given as “minimal”. The “mean AST and total and direct bilirubin levels versus baseline” value in [7] (oral 10 or 30 mg/kg/day×10 days, p>0.05) was “not statistically different from baseline values”. Besides, in series [7] (oral 10 or 30 mg/kg/day×10 days, uninfected), the “gastrointestinal toxicity (stool, faecal occult blood tests)” value was “no notable gastrointestinal toxicity occurred”. The overall tolerability result in [7] (two oral regimens, 10 and 30 mg/kg/day for 10 days, uninfected) is given as “well tolerated”. The “haematological parameters versus baseline” value in series [7] (two treatment groups, 10 and 30 mg/kg/day×10 days, uninfected) was “did not vary significantly from baseline”.
Regarding `N=C(N)c1ccc(-c2ccc(-c3ccc(C(=N)N)cc3)o2)cc1` [furamidine, 2,5-bis(4-amidinophenyl)furan, reference compound], the “exposure required to kill trypanosomes in culture” value in [8] is recorded as 1 h.
